“And” between values parts separate entries of the source, which are not always exact repeats. Identical values can stand only once. Toxic doses and inconclusive results are not listed.
System: P388 leukemia ip, CD2F1 mice, survival T/C
Test: NCI In Vivo Anticancer Drug Screen. Data for tumor model P388 Leukemia (intraperitoneal) in CD2F1 (CDF1) mice
Conditions: endpoint: median survival time, higher = longer survival
Outline: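 Mice carrying the transplanted tumor received test compound or vehicle. Survival was recorded in each group, and the value is the treated-group measurement divided by that of the vehicle-treated control group.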

[1] = dose: 100.0 mg/kg/injection, schedule: Q01DX009 (ip), vehicle: saline with Tween-80
[2] = dose: 50.0 mg/kg/injection, schedule: Q01DX005 (ip), vehicle: Klucel (hydroxypropylcellulose) (HPC)
[3] = dose: 100.0 mg/kg/injection, schedule: Q01DX005 (ip), vehicle: Klucel (hydroxypropylcellulose) (HPC)
[4] = dose: 200.0 mg/kg/injection, schedule: Q01DX005 (ip), vehicle: Klucel (hydroxypropylcellulose) (HPC)
[5] = dose: 25.0 mg/kg/injection, schedule: Q01DX005 (ip), vehicle: saline
[6] = dose: 50.0 mg/kg/injection, schedule: Q01DX005 (ip), vehicle: saline
[7] = dose: 50.0 mg/kg/injection, schedule: Q01DX009 (ip), vehicle: saline
[8] = dose: 100.0 mg/kg/injection, schedule: Q01DX009 (ip), vehicle: saline
[9] = dose: 200.0 mg/kg/injection, schedule: Q01DX009 (ip), vehicle: saline

## N#CC(c1ccccc1)C1NC(C(=O)O)CS1 (stereo not drawn)
dose: 50.0 mg/kg/injection, schedule: Q01DX009 (ip), vehicle: suspension in saline
  T/C: 106 % of control
dose: 100.0 mg/kg/injection, schedule: Q01DX009 (ip), vehicle: suspension in saline
  T/C: 93 % of control
dose: 200.0 mg/kg/injection, schedule: Q01DX009 (ip), vehicle: suspension in saline
  T/C: 93 % of control

## CC(=O)OCc1cnccc1Cl
dose: 100.0 mg/kg/injection, schedule: Q04DX002 (ip), vehicle: saline with Tween-80
  T/C: 100 % of control
dose: 200.0 mg/kg/injection, schedule: Q04DX002 (ip), vehicle: saline with Tween-80
  T/C: 102 % of control
dose: 400.0 mg/kg/injection, schedule: Q04DX002 (ip), vehicle: saline with Tween-80
  T/C: 94 % of control

## COc1ccc(C(=O)c2cccnc2C(=O)O)cc1
dose: 50.0 mg/kg/injection, schedule: Q01DX009 (ip), vehicle: saline with Tween-80
  T/C: 105 % of control
[1]
  T/C: 107 % of control
dose: 200.0 mg/kg/injection, schedule: Q01DX009 (ip), vehicle: saline with Tween-80
  T/C: 107 % of control

## O=[N+]([O-])c1ccc(-c2nnn(CCCN3CCOCC3)c2N2CCCCC2)cc1
[2]
  T/C: 107 % of control
[3]
  T/C: 107 % of control
[4]
  T/C: 107 % of control

## O=C1C=CC(=Nc2cc(Br)c(O)c(Br)c2)C=C1
dose: 12.5 mg/kg/injection, schedule: Q01DX005 (ip), vehicle: saline
  T/C: 103 % of control
[5]
  T/C: 99 % of control
[6]
  T/C: 89 % of control and 95 % of control

## CSC(=S)N/N=C/c1nccc(-c2ccccc2)c1C
[7]
  T/C: 97 % of control
[8]
  T/C: 108 % of control
[9]
  T/C: 96 % of control

## NC(=S)N/N=C1/C(=O)N(c2ccc(Cl)cc2)C(=O)C1C(=O)Nc1ccc(Cl)cc1 (stereo not drawn)
dose: 15.0 mg/kg/injection, schedule: Q01DX005 (ip), vehicle: saline with Tween-80
  T/C: 97 % of control
dose: 30.0 mg/kg/injection, schedule: Q01DX005 (ip), vehicle: saline with Tween-80
  T/C: 94 % of control
dose: 60.0 mg/kg/injection, schedule: Q01DX005 (ip), vehicle: saline with Tween-80
  T/C: 93 % of control and 94 % of control

## CCOC(=O)Nc1nc2ccc([N+](=O)[O-])cc2s1
dose: 6.25 mg/kg/injection, schedule: Q01DX009 (ip), vehicle: Klucel (hydroxypropylcellulose) (HPC)
  T/C: 104 % of control
dose: 12.5 mg/kg/injection, schedule: Q01DX009 (ip), vehicle: Klucel (hydroxypropylcellulose) (HPC)
  T/C: 107 % of control
dose: 25.0 mg/kg/injection, schedule: Q01DX009 (ip), vehicle: Klucel (hydroxypropylcellulose) (HPC)
  T/C: 105 % of control

## CCOP(=S)(N1CC1(C)C)N1CC1(C)C (stereo not drawn)
dose: 25.0 mg/kg/injection, schedule: Q01DX009 (ip), vehicle: saline
  T/C: 109 % of control
[7]
  T/C: 109 % of control
[1]
  T/C: 154 % of control
[8]
  T/C: 109 % of control
dose: 100.0 mg/kg/injection, schedule: Q04DX003 (ip), vehicle: saline with Tween-80
  T/C: 109 % of control
dose: 264.0 mg/kg/injection, schedule: Q04DX003 (ip), vehicle: saline with Tween-80
  T/C: 172 % of control
dose: 400.0 mg/kg/injection, schedule: Q04DX003 (ip), vehicle: saline with Tween-80
  T/C: 168 % of control and 204 % of control

## CN1C(=O)C2(OC(N)=C(O)C2=O)c2ccccc21 (stereo not drawn)
[2]
  T/C: 99 % of control
[3]
  T/C: 96 % of control
[4]
  T/C: 97 % of control

## COc1cc([C@@H]2OC[C@@H]3C(c4cc(OC)c5c(c4)OCO5)OC[C@@H]32)cc(OC)c1OC (stereo partly drawn)
dose: 5.0 mg/kg/injection, schedule: Q01DX009 (ip), vehicle: saline + Tween-80 + alcohol
  T/C: 102 % of control
dose: 10.0 mg/kg/injection, schedule: Q01DX009 (ip), vehicle: saline + Tween-80 + alcohol
  T/C: 101 % of control
dose: 20.0 mg/kg/injection, schedule: Q01DX009 (ip), vehicle: saline + Tween-80 + alcohol
  T/C: 105 % of control
dose: 40.0 mg/kg/injection, schedule: Q01DX009 (ip), vehicle: saline + Tween-80 + alcohol
  T/C: 105 % of control

## CN(C)C(=O)NCCCCCCNC(=O)N(C)C
[7]
  T/C: 105 % of control
[8]
  T/C: 100 % of control
[9]
  T/C: 110 % of control

## C/C(N=NC(=S)N1CCCC1)=C1\C=CC=CN1O
dose: 50.0 mg/kg/injection, schedule: Q01DX005 (ip), vehicle: saline with Tween-80
  T/C: 106 % of control
dose: 100.0 mg/kg/injection, schedule: Q01DX005 (ip), vehicle: saline with Tween-80
  T/C: 103 % of control
dose: 200.0 mg/kg/injection, schedule: Q01DX005 (ip), vehicle: saline with Tween-80
  T/C: 112 % of control

## CN1CC(C(N)=O)=CC(C(N)=O)C1 (stereo not drawn)
[5]
  T/C: 97 % of control
[6]
  T/C: 96 % of control
dose: 100.0 mg/kg/injection, schedule: Q01DX005 (ip), vehicle: saline
  T/C: 113 % of control
dose: 200.0 mg/kg/injection, schedule: Q01DX005 (ip), vehicle: saline
  T/C: 111 % of control
